Results published in PMC2643345 (Molecular cancer therapeutics, 2008).

Molecular target: T1, wild-type AR (Homo sapiens, UniProt P10275)
T1 sequence (P10275 1-920): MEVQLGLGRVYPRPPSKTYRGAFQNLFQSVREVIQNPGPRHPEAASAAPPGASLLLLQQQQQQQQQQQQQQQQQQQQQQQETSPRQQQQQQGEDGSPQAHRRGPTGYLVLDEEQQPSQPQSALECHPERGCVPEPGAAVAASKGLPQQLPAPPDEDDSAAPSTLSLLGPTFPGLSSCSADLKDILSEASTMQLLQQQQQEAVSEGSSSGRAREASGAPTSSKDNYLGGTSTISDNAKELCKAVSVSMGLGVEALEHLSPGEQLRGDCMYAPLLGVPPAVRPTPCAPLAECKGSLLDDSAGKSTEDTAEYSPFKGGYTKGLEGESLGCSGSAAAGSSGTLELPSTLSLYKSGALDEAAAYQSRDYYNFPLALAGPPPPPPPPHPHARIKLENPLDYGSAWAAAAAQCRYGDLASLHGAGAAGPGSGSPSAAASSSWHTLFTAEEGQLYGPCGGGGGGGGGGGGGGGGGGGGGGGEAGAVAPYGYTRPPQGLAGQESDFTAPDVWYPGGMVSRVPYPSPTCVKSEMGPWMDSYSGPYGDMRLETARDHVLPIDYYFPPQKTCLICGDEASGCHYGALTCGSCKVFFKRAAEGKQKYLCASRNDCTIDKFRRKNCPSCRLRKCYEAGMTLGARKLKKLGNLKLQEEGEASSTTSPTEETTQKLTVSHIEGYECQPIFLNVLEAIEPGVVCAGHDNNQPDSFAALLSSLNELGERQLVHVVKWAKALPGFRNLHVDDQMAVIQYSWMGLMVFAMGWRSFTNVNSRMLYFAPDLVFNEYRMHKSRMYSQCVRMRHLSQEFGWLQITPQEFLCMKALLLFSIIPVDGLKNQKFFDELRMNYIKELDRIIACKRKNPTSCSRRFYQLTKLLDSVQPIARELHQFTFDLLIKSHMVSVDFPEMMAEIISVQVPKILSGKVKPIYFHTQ
Assay: Competitive inhibition of [3H]R1881 binding, wild-type AR

binding to the AR (competitive binding, up to 10 μM): did not bind | inhibition at 10 µM (read-out: wild-type (LAPC4/PC3-AR), inhibition of [3H]R1881 binding as symbol): < 20%
SMILES: C[C@]12CC[C@H](O)CC1=CC[C@@H]1[C@@H]2CC[C@]2(C)C(c3cccnc3)=CC[C@@H]12 [Abiraterone]
